Data on one molecule can be found in patent US12595250B2, “Substituted pyrimidine compounds as multifunctional radical quenchers and their uses” (ARIZONA BOARD OF REGENTS ON BEHALF OF ARIZONA STATE …, priority 2016, dated 2026).

The test system of assay [1] is FRDA lymphocytes. The experiment in a line: Reactive oxygen species (ROS) assay (DCFH-DA, FACS). Format: cell-based, Human. To be noted: high concentration, 5 mM DEM. The procedure:
The cells were stained with 2, 7-dichlorodihydrofluorescein diacetate (DCFH-DA) for 15 minutes prior to analysis. The samples were analyzed immediately by flow cytometry (C6 Accuri, BD Biosciences, San Jose, CA). The bar graph represents the percentage of the median mean fluorescence intensity of DCF fluorescence relative to a DEM-treated control. Data shown represent the mean±SEM of two different experiments run as duplicates.
Human mitochondrial disease cell lines, Friedreich's ataxia lymphocytes (GM15850), and Leigh's syndrome lymphocytes (GM13740) were obtained from Coriell Cell Repositories (Camden, NJ). […]
Quantitative analysis of intracellular ROS levels in FRDA lymphocytes, challenged with 5 mM diethyl maleate (DEM) in presence or absence of the test compounds, was obtained by FACS analysis using a dichlorodihydrofluorescein diacetate probe (DCFH-DA), as described in art (Goldschmidt, R., et al. Bioorg. Med Chem. 2013, 21, 969; Arce, P. M., et al. Bioorg. Med Chem. 2012, 20, 5188; Arce, P. M., et al. ACS Med Chem. Lett. 2011, 2, 608; Khdour, O. M., et al. Pharm. Res. 2011, 28, 2896; Lu, J., et al. Bioorg. Med Chem. 2010, 18, 7628; and Cai, X., et al. Bioorg. Med Chem. 2012, 20, 3584). […] The samples were analyzed immediately by flow cytometry (C6 Accuri, BD Biosciences, San Jose, CA), using a 488 nm excitation laser and the FL1-H channel 530±15 nm emission filter. […]

Assay [2] relates to FRDA lymphocytes. Description: Cellular ATP concentration assay (luciferin-luciferase). Format: cell-based, Human. To be noted: Homo sapiens, Lymphocyte, incubation 48 h, read-out: Total ATP level (% control) FRDA lymphocytes.

Consider `CCCCCCCCCCCCCCc1nc(OC2CCC2)nc(OC2CCC2)c1O` [Compound 3b, 2,4-Dicyclobutanoxy-6-tetradecylpyrimidin-5-ol], for which, in the assay on FRDA lymphocytes [1], the “Suppression of ROS (in words, FIG. 3)” value was “appeared to be efficient”. Also, the activity at 1 µM with FRDA lymphocytes [2] (1 μM) was found to be 99 ± 1%. Moreover, the activity at 5 µM in the assay on FRDA lymphocytes [2] (5 μM) is 98 ± 2%. The activity at 20 µM in the assay with FRDA lymphocytes [2] (20 μM) came out at 94 ± 2%.
